# Measurements reported in patent US20160331662A1, “Compositions that Inhibit and Prevent the Formation of Dental Caries and Methods of Using the Same” (priority 2014, published 2016).
# Assays:
# [1] = tested on: adhesion of SspB of S. gordonii to iSRCR123; experiment: Adherence/inhibition SPR: SspB fragments on immobilized iSRCR123; assay type: binding
# Procedure: (§1) Carbohydrates Galβ1-3-GalNac and Mannose (identified from glycan profile analysis) at different concentrations (0.010, 0.050, 0.1, 0.5 and 1 mM) were incubated with 2 μM of each FL, A3VP1 and C123 of AgI/II and SspB and the interaction with immobilized iSRCR1 and iSRCR123 with running buffer containing 20 mM HEPES, 150 mM NaCl and 2.5 mM CaCl2, pH 7.4 at 25° C. and with flow rate of 20 μl/min was analyzed. Direct adherence of these carbohydrates alone served as the control and all calculations were carried out using the BIAevaluation software. Using the same protocol above at varying concentrations the effect of SRCRP2 peptide on the adherence inhibition was assessed.
# [2] = tested on: adhesion of AgI/II of S. mutans to iSRCR1; experiment: Adherence/inhibition SPR: AgI/II fragments on immobilized iSRCR1; assay type: binding
# Procedure: as §1
# [3] = molecular target: T1, AgI/II adherence to immobilized salivary agglutinin (Streptococcus mutans serotype c, UniProt P23504); experiment: SPR inhibition of SAG adherence of FL surface protein (Example 2); assay type: binding, S. mutans; conditions: 2 mM
# T1 construct: Recombinant full length (FL) constructs of surface proteins (homologs of AgI/II) AgI/II, SspB, Pas; made in house
# Procedure: (§2) Inhibition of SAG adherence to AgI/II, SspB, Pas, along with glucan binding protein C (GbpC) and collagen binding protein (rcnM) by Galβ1-3GalNac (core-1) was determined as is described in Example 1 and as described below.
# (§3) Recombinant full length (FL) constructs of surface proteins (homologs of AgI/II) AgI/II, SspB, Pas, along with GbpC (Glucan binding protein C) and rcnM (collagen binding protein) were incubated with various concentrations (0.010 mM to 2 mM) of Galβ1-3GalNac at room temperature and their binding interaction with immobilized salivary agglutinin on a CM5 sensor chip was determined.
# [4] = tested on: adhesion of AgI/II of S. mutans to iSRCR123; experiment: Adherence/inhibition SPR: AgI/II fragments on immobilized iSRCR123; assay type: binding
# Procedure: as §1
# [5] = molecular target: T2, Pas adherence to immobilized salivary agglutinin (Streptococcus intermedius, UniProt Q9KW51); experiment: SPR inhibition of SAG adherence of FL surface protein (Example 2); assay type: binding, S. intermedius; conditions: 2 mM
# T2 construct: Recombinant full length (FL) constructs of surface proteins (homologs of AgI/II) AgI/II, SspB, Pas; made in house
# Procedure: as §2, §3
# [6] = molecular target: T3, SAG (Homo sapiens, UniProt Q9UGM3); experiment: SPR binding of analytes to immobilized SAG; conditions: 2 mM, control experiment
# T3 construct: from tissue; host or cells: saliva (purified SAG, gift)
# T3 sequence (Q9UGM3 20-2413): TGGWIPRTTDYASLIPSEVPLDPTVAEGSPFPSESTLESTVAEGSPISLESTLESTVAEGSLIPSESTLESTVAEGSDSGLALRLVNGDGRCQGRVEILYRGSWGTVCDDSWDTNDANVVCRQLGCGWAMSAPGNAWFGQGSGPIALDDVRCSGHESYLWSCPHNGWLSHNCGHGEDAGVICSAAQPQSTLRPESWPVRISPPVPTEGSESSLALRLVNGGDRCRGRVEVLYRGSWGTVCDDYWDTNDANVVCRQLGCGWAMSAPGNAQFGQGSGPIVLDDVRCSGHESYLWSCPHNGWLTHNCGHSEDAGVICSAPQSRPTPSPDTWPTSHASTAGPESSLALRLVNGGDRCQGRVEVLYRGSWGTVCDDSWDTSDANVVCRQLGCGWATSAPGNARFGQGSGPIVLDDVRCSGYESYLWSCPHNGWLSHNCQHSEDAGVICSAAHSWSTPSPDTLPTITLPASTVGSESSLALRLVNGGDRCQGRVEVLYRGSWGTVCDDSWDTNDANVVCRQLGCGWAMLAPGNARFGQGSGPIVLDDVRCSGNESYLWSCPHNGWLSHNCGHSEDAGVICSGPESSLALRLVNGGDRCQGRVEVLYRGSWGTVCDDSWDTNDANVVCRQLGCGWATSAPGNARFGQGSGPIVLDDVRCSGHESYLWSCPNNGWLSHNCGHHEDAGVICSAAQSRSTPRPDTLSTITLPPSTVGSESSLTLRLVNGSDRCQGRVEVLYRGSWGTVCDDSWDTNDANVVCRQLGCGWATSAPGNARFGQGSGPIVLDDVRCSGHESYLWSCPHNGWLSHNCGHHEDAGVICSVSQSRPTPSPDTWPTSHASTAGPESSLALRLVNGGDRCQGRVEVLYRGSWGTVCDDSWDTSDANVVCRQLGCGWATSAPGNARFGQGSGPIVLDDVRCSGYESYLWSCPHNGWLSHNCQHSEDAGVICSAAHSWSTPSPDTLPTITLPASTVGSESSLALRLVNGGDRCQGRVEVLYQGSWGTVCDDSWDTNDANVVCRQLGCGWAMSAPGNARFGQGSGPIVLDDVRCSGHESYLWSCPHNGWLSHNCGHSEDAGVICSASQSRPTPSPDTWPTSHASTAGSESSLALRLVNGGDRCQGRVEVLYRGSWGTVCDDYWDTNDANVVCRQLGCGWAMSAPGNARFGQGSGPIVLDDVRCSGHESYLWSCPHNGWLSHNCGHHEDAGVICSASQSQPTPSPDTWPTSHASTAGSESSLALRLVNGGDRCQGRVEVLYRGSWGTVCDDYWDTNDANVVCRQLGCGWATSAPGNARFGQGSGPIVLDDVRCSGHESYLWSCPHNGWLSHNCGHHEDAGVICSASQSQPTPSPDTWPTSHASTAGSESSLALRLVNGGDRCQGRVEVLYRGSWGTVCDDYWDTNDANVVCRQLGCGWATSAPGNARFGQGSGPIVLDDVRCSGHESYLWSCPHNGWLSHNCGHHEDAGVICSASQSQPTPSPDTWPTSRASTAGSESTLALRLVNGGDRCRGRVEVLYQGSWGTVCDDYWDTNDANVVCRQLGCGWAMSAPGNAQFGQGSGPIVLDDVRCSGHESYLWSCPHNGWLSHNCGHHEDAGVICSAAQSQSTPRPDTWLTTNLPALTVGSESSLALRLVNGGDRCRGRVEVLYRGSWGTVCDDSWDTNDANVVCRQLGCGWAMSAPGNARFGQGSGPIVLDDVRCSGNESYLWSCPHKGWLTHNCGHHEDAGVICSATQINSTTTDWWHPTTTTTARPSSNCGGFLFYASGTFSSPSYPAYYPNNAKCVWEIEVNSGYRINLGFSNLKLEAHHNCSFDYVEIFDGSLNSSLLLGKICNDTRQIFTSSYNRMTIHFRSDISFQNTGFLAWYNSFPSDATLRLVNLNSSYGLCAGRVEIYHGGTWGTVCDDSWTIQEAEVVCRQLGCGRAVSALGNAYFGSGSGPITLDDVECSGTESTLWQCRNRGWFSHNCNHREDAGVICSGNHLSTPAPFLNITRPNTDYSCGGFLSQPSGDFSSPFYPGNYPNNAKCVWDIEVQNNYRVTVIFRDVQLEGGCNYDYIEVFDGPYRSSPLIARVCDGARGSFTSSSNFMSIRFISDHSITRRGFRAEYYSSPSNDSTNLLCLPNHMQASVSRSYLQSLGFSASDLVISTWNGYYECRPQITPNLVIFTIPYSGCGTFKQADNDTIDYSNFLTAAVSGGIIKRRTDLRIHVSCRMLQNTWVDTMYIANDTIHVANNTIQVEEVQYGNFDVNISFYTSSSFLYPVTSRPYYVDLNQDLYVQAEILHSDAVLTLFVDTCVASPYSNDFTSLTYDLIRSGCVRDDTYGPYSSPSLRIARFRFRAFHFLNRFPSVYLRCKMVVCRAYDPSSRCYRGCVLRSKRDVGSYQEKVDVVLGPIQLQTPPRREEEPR
# Procedure: (§4) Real time binding analyses of the SRCR domains with AgI/II fragments were carried out using the BIAcore 2000 system. […] Self association of iSRCR1 or iSRCR123 (at 2 μM) were also determined in a similar manner as described above. Finally to determine the effect of calcium SPR analysis was carried out by dialyzing the analytes and ligands in binding buffer devoid of CaCl2.
# (§5) In addition, the SRCR holding two distinct surfaces compounded the elucidation of individual kinetics, and presently there are no modeling protocols available to determine the individual affinities for such a system, therefore for simplicity we have utilized a single site 1:1 Langmuir model. All experiments were carried out in triplicates and the kinetics of the association (KA) and dissociation (KD) rate constants were deduced using the 1:1 Langmuir Kinetic model on the BIA-Evaluation software. The concentration (C in μM) of analyte (FL^AgI/II or FL^SspB at 2 μM) that adhered to the immobilized ligand (iSRCR1, iSRCR123) within the flow cell was calculated using the formula C=(RU/MW)×(1/V), where RU is resonance unit (1 RU=1 pg of bound protein), MW is molecular weight of analyte and V is volume of flow cell (1.2×10^−10 L).
# [7] = molecular target: T4, iSRCR1 (Homo sapiens, UniProt Q9UGM3); experiment: SPR binding of analytes to immobilized iSRCR1 (CM5 chip, 1:1 Langmuir); conditions: substance alone over CM5 chip
# T4 construct: strongly proves that a single SRCR domain contains the adherence sites for AgI/II and SspB; made in house; host or cells: Drosophila expression system
# T4 sequence (Q9UGM3 102-202 limits assumed): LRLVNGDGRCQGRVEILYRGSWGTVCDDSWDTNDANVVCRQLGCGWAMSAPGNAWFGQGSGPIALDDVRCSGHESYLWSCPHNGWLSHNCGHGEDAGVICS
# Procedure: as §4, §5
# [8] = tested on: GbpC (Glucan binding protein C) adherence to immobilized salivary agglutinin; experiment: SPR inhibition of SAG adherence of FL surface protein (Example 2); design: species or system S. mutans; conditions: 2 mM
# Procedure: as §2, §3
# [9] = molecular target: T5, SspB adherence to immobilized salivary agglutinin (Streptococcus gordonii, UniProt A8AUS1); experiment: as above; assay type: binding, S. gordonii; conditions: 2 mM
# T5 construct: (39-1433) (NotI) Reverse; made in house; host or cells: pET23d vector
# T5 sequence (A8AUS1 39-1433): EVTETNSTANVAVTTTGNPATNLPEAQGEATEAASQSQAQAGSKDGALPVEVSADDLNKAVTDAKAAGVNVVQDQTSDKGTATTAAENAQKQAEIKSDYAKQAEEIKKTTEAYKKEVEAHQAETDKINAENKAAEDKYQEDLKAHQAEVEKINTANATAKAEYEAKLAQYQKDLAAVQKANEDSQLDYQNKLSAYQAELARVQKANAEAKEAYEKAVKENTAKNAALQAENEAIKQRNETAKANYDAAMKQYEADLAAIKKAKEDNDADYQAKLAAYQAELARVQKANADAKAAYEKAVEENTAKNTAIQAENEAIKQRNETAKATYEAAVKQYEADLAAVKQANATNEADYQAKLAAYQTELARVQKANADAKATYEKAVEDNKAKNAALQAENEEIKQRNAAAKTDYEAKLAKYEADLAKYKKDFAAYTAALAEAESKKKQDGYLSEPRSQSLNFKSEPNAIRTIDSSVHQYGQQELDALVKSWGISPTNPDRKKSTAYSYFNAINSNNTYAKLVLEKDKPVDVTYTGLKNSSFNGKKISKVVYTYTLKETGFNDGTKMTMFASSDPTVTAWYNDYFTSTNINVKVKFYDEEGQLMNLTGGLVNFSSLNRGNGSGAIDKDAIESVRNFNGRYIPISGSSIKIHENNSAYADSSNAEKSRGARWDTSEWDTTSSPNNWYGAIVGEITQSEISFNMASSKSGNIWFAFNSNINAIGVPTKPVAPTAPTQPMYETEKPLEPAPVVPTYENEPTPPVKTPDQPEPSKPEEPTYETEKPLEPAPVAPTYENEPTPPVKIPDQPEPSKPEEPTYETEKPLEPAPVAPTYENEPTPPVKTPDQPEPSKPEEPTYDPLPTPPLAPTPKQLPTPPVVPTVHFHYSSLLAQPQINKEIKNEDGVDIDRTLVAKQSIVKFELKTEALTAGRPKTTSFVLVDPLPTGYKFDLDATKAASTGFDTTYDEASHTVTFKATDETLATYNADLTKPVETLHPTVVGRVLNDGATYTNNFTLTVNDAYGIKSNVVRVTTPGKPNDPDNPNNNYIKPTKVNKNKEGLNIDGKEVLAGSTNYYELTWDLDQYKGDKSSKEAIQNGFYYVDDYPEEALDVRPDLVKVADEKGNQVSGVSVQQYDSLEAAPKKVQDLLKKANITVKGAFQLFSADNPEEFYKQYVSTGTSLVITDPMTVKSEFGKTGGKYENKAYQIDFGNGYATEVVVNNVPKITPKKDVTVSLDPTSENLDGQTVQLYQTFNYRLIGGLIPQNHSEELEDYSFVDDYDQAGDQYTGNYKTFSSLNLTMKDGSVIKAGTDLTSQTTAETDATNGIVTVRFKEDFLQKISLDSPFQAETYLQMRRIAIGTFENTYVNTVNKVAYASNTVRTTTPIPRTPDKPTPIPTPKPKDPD
# Procedure: as §2, §3
# [10] = molecular target: T6, iSRCR123 (Homo sapiens, UniProt Q9UGM3); experiment: SPR binding of analytes to immobilized iSRCR123 (CM5 chip, 1:1 Langmuir); conditions: substance alone over CM5 chip
# T6 construct: multiple SRCR domains have better adherence capability compared to that of a single SRCR domain; made in house; host or cells: Drosophila expression system
# T6 sequence (Q9UGM3 102-463 limits assumed): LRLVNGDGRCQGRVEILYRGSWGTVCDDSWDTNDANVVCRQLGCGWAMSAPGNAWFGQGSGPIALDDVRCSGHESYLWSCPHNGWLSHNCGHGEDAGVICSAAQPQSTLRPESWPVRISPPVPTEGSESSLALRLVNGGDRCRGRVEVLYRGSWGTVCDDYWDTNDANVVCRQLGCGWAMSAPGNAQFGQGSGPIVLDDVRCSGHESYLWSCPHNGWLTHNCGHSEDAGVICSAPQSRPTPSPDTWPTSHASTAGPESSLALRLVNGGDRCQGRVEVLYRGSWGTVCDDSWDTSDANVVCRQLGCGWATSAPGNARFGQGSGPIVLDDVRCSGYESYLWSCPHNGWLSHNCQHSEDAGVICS
# Procedure: as §4, §5
# [11] = tested on: rcnM (collagen binding protein) adherence to immobilized salivary agglutinin; experiment: SPR inhibition of SAG adherence of FL surface protein (Example 2); conditions: 2 mM
# Procedure: as §2, §3
# [12] = tested on: adhesion of SspB of S. gordonii to iSRCR1; assay type: binding; conditions: lower concentrations 0.010 mM-0.500 mM
# Procedure: as §1
# [13] = molecular target: T7, adhesion of SspB of S. gordonii to iSRCR1 (Streptococcus gordonii, UniProt A8AUS1); assay type: binding; conditions: 1.0 mM; 2 μM protein
# T7 construct: made in house; host or cells: pET23d vector
# Procedure: as §1
# [14] = lower concentrations 0.010 mM-0.500 mM
smiles,measurement,setting,value
CC(=O)N[C@H]1C(O)O[C@H](CO)[C@H](O)[C@@H]1O[C@@H]1O[C@H](CO)[C@H](O)[C@H](O)[C@H]1O (stereo partly drawn) [Galβ1-3-GalNac],inhibition of adhesion of A3VP1^SspB to iSRCR123,"[1]; 1.0 mM, 2 μM protein",60%
same,inhibition of adhesion of C123^SspB to iSRCR123,"[1]; 1.0 mM, 2 μM protein",40%
same,inhibition of adhesion of FL^SspB to iSRCR123,"[1]; 1.0 mM, 2 μM protein",37%
same,effect on adhesion of all SspB fragments with iSRCR123 (in words),[1]; [14],enhanced the adhesion
same,inhibition of adhesion of A3VP1^AgI/II to iSRCR1,"[2]; 1.0 mM, 2 μM protein",79%
same,inhibition of adhesion of C123^AgI/II to iSRCR1,"[2]; 1.0 mM, 2 μM protein",73%
same,inhibition of adhesion of FL^AgI/II to iSRCR1,"[2]; 1.0 mM, 2 μM protein",85%
same,effect on adhesion of all AgI/II fragments with iSRCR1 (in words),[2]; [14],enhanced the adhesion
same,inhibition of SAG adherence of AgI/II,[3],94%
same,inhibition of adhesion of A3VP1^AgI/II to iSRCR123,"[4]; 1.0 mM, 2 μM protein",75%
same,inhibition of adhesion of C123^AgI/II to iSRCR123,"[4]; 1.0 mM, 2 μM protein",47%
same,inhibition of adhesion of FL^AgI/II to iSRCR123,"[4]; 1.0 mM, 2 μM protein",73%
same,effect on adhesion of all AgI/II fragments with iSRCR123 (in words),[4]; [14],enhanced the adhesion
same,inhibition of SAG adherence of Pas,[5],28%
same,direct adherence to SAG (in words),[6],did not show direct adherence
same,direct binding to immobilized iSRCR1 (in words),[7],did not have any interactions
same,inhibition of SAG adherence of GBPC,[8],72%
same,inhibition of SAG adherence of SspB,[9],65%
same,direct binding to immobilized iSRCR123 (in words),[10],did not have any interactions
same,inhibition of SAG adherence of rcnM,[11],69%
same,effect on adhesion of all SspB fragments with iSRCR1 (in words),[12],enhanced the adhesion
same,inhibition of adhesion of A3VP1^SspB to iSRCR1,[13],61%
same,inhibition of adhesion of C123^SspB to iSRCR1,[13],32%
same,inhibition of adhesion of FL^SspB to iSRCR1,[13],64%
